Target: Photoreceptor-specific nuclear receptor (Homo sapiens, UniProt Q9Y5X4)
Test: NR2E3 inverse agonists, dose response, biochemical, TR-FRET (AID 463256)

Photoreceptor-specific nuclear receptor, sequence (Q9Y5X4 whole entry): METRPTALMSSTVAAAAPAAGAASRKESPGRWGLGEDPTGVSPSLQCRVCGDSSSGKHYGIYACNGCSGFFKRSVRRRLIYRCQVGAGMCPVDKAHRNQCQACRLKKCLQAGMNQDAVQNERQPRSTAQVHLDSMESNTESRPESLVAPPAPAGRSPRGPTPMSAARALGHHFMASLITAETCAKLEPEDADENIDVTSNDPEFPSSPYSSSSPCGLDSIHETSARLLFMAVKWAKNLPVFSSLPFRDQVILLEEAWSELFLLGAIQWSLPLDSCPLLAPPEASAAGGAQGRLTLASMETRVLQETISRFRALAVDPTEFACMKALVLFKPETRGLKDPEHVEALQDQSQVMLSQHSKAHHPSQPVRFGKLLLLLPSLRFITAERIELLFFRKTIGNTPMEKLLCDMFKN

IC50: 13.4 µM
Compound: COc1ccc(-n2cc(O)c(-c3nc(-c4ccccc4)cs3)c2N)cc1 [5-amino-1-(4-methoxyphenyl)-4-(4-phenyl-1,3-thiazol-2-yl)-2H-pyrrol-3-one]
